Active and inactive are the calls of the source. No cut-off for these calls is given here.
What was measured:
[1] = system: Mus musculus; assay: Antitumor activity against mouse TRAMP-C2 cells implanted in mouse assessed as reduction tumor volume at 200 mg/kg, ip dosed on day 3 to 7; type: functional, organism-based
[2] = molecular target: T1, Krueppel-like factor 10 (Mus musculus) (UniProt O89091); assay: Inhibition of KLF10 in mouse CD4+CD25- T cells assessed as reduction in Foxp3 mRNA expression incubated for 5 days by real time qPCR analysis relative to control; type: cell-based
T1 sequence (whole entry): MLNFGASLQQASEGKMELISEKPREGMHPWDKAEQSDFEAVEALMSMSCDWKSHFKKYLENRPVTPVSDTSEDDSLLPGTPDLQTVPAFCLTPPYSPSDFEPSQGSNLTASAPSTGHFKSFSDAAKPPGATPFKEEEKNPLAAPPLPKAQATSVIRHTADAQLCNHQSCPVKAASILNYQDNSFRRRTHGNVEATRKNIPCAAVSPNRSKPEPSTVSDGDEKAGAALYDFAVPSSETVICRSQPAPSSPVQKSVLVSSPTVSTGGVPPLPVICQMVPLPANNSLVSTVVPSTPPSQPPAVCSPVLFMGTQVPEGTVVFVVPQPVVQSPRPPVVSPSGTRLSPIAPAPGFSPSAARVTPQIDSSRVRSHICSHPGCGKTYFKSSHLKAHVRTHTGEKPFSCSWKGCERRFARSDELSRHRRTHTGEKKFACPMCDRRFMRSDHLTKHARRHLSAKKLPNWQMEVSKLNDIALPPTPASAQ

[3] = molecular target: T1, Krueppel-like factor 10 (Mus musculus); assay: Inhibition of KLF10 in mouse CD4+CD25- T cells assessed as reduction in checkpoint markers on iTregs by measuring PD1 expression level; type: cell-based; set-up: scale not given: the % may be the effect or the level left
[4] = system: B16; assay: Antitumor activity against mouse B16 cells implanted in mouse assessed as reduction tumor volume at 200 mg/kg, ip dosed on day 3 to 7; type: functional, organism-based
[5] = molecular target: T1, Krueppel-like factor 10 (Mus musculus); assay: Inhibition of KLF10 in mouse CD4+CD25- T cells assessed as reduction in checkpoint markers on iTregs by measuring PDL1 expression level; type: cell-based; set-up: scale not given: the % may be the effect or the level left
[6] = molecular target: T1, Krueppel-like factor 10 (Mus musculus); assay: Inhibition of KLF10 in mouse CD4+CD25- T cells assessed as reduction in checkpoint markers on iTregs by measuring CTLA4 expression level; type: cell-based; set-up: scale not given: the % may be the effect or the level left
[7] = molecular target: Krueppel-like factor 1 (Homo sapiens) (UniProt Q13351); assay: Inhibition of GST-tagged KLF1 (unknown origin) binding to double-stranded DNA at 8 uM by electromobility gel shift assay relative to control
[8] = system: Mus musculus; assay: Suppression of TGF-beta1 expression in CD4+ T cells isolated from mouse B16 cells implanted mouse at 25 to 100 mg/kg, ip; type: functional, organism-based
[9] = molecular target: Krueppel-like factor 1 (Homo sapiens) (UniProt Q13351); assay: Inhibition of GST-tagged KLF1 (unknown origin) binding to double-stranded DNA at 40 uM by electromobility gel shift assay relative to control
[10] = system: B16; assay: Antitumor activity against mouse B16cells implanted in mouse assessed as reduction tumor volume at 20 mg/kg dosed via local injection on day 0 and measured from day 4 to day 13; type: functional, organism-based
[11] = molecular target: T1, Krueppel-like factor 10 (Mus musculus); assay: Inhibition of KLF10 in mouse CD4+CD25- T cells assessed as reduction in Foxp3 mRNA expression at 50 uM incubated for 5 days by real time qPCR analysis relative to control; type: cell-based
[12] = molecular target: T1, Krueppel-like factor 10 (Mus musculus); assay: Inhibition of KLF10 in mouse CD4+CD25- T cells assessed as reduction in PD1 mRNA expression at 50 uM incubated for 5 days by real time qPCR analysis relative to control; type: cell-based

Sequence of Krueppel-like factor 1 (Homo sapiens) (Q13351 whole entry): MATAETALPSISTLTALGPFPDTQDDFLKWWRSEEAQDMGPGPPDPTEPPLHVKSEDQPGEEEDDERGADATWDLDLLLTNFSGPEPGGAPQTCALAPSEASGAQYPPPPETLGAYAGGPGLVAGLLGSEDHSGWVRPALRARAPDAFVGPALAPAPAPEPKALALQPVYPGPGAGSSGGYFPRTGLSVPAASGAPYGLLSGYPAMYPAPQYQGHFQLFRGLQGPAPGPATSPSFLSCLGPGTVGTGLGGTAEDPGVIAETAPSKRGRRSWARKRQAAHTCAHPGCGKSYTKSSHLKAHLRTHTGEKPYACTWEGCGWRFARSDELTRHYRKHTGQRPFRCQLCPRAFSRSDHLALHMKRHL

Structure (SMILES) | inhibition [1] | inhibition [2] | Activity [3] [%] | inhibition [4] | Activity [5] [%] | Activity [6] [%] | inhibition [7] | inhibition [8] | inhibition [9] | Activity [10] | inhibition [11] [%] | inhibition [12]
Cc1ccc(OCC(=O)c2cc(C)c(O)cc2O)cc1 | Active | Active | 49.4 | Active | 43.7 | 88.7 | inactive | Active | inactive | Active |  | 
COc1ccc(C(=O)COC(=O)c2cc(C)ccc2O)cc1 |  | Active | 47.6 |  | 53.1 | 92 | inactive |  | inactive |  | 82.5 | Active

— ChEMBL document CHEMBL4419166, “Use of small molecule inhibitors to klf10 for modulation of t regulatory cells and cancer immunotherapy” (2017)
